Entries after “also recorded” stand apart in the source; their conditions may differ. Like-named read-outs stand apart in the source and are kept apart here.
Legend:
NMDA receptors = assay: NMDA receptor modulation at a saturated aqueous phase concentration; assay type: cell-based
mice = assay: General anesthesia in mice (MAC for loss of righting reflex); assay type: in vivo; conditions: inhaled, closed microcircuit
Protocol: In a method to measure the minimum alveolar concentration (MAC) for Loss Of Righting Reflex (MACLORR), for assessing the performance of a compound as a general anesthetic, mice were placed in a 3.5 cm diameter, 14.5 cm long acrylic cylinder connected on either end via unidirectional valves to a closed microcircuit containing a carbon dioxide absorbent vessel, latex balloon breathing bag, sampling port, and 100 mL glass syringe-driven piston. […] The procedures for measuring MACLORR and MAC, as well as general methods for measuring agent concentrations by gas chromatography, have been described in Deady J E, Koblin D D, Eger E I, 2nd, Heavner J E, D'Aoust B: Anesthetic potencies and the unitary theory of narcosis. Anesth Analg 1981; 60: 380-4; Brosnan R J, Thiesen R: Increased NMDA receptor inhibition at an increased Sevoflurane MAC. BMC Anesthesiol 2012; 12: 9; and Brosnan R J: GABA(A) receptor antagonism increases NMDA receptor inhibition by isoflurane at a minimum alveolar concentration. Vet Anaesth Analg 2011; 38: 231-9, the disclosures of which are incorporated by reference in their entireties.

Row | SMILES | modulation/inhibition of NMDA receptors (NMDA receptors) | general anesthesia in mice (mice) | modulation/inhibition of NMDA receptors (NMDA receptors; listed as 1-bromo-1,1,2-trifluoro-2-(trifluoromethoxy)-ethane)
1 | COC(F)(C(F)(F)F)C(F)(F)F [Propane, 1,1,1,2,3,3,3-heptafluoro-2-methoxy-] | inhibits NMDA receptors | – | –
2 | FC(OC(F)(F)F)C(F)(F)Br (stereo not drawn) [Ethane, 1-bromo-1,1,2-trifluoro-2-(trifluoromethoxy)-] | – | produced general anesthesia | devoid of NMDA receptor effects; also recorded: does not modulate NMDA receptors

— US11696898B2, “Halogenated ether compounds and methods of inducing anesthesia” (The Regents of the University of California, priority 2014, dated 2023)
